According to ChEMBL document CHEMBL1145508, “Role of homoserine transacetylase as a new target for antifungal agents” (Antimicrob Agents Chemother, 2007):

What was measured:
[1] = Inhibition of Cryptococcus neoformans H99 HTA expressed in Escherichia coli BL21(DE3) cells
[2] = Inhibition of Schizosaccharomyces pombe HTA in presence of 100 uM acetyl-CoA substrate
[3] = Inhibition of Schizosaccharomyces pombe HTA in presence of 10 uM acetyl-CoA substrate

IC50 [1]: 4.5 µM
IC50 [2]: 287 µM
IC50 [3]: 156 µM
Compound: NC(=O)c1cccc2c1NC(C(=O)O)C1CC=CC21 (centres undefined)
Ki [1]: 91.7 µM
